Like-named read-outs stand apart in the source and are kept apart here. Where only a bound is given, the exact number is not on record here.

In assay [1] the target is MCH-1R (UniProt Q99705). Briefly: MCH-1R competition binding assay. The protocol: In vitro binding and function assays are performed on membranes derived from cells or tissues expressing endogenous MCH1R. Competition binding assays are performed to identify high affinity compounds. Briefly, either radiolabeled or europium labeled MCH with varying concentrations of competitor compound which are incubated with membranes expressing the receptor. Rat brain membrane or cell lines, including but not limited to human Kelly neuroblastoma cells, A-431 epidermoid cells, and rat PC-12 cells are known to express endogenous MCH1R and are used in the assay. Binding is allowed to proceed until equilibrium is reached then bound labeled MCH is separated from free MCH by capturing membranes onto a filter. The filters are washed to remove loosely associated MCH and labeled MCH is quantified. Data is analyzed and IC50 and Ki are calculated to determine compound affinity.

In assay [2] the target is T1, 5-HT2c receptor (Homo sapiens, UniProt P28335).
T1 construct: purchased Perkin-Elmer or Euroscreen (named only as possible suppliers)
T1 sequence (P28335 33-458): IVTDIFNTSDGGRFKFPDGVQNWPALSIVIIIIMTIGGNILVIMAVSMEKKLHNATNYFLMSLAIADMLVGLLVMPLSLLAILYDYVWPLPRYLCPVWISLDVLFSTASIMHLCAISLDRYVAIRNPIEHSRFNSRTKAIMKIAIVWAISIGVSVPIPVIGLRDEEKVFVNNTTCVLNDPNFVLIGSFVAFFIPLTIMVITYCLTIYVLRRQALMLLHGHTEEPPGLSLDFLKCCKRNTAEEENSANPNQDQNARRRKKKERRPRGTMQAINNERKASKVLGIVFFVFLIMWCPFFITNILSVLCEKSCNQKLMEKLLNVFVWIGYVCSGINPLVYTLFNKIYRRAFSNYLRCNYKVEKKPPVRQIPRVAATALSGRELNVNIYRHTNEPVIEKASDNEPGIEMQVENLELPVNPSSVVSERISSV
Briefly: 5-HT2c receptor binding assay (3H-mesulergine competition). The protocol: MCH antagonist compounds are evaluated for binding to the serotonin 5-HT2c receptor to determine receptor selectivity. Binding activity is assessed using a competitive assay with ^3H-mesulergine (Perkin Elmer), a 5-HT2c selective ligand, on membrane containing the 5-HT2c receptor. Briefly, 1 nM ^3H-mesulergine and varying concentrations of the compound are incubated with 5-HT2c receptor membranes, following an incubation period, the membranes are washed and ^3H-mesulergine bound to membranes is measured in a liquid scintillation counter. The amount of bound ^3H-mesulergine at the varying concentration of competitor compound is used to derive the affinity (Ki) of the compound for the 5-HT2c receptor. 5-HT2c receptor containing membranes are readily available from several companies including Perkin-Elmer and Euroscreen.

Setting [3] is: 1 nM 3H-mesulergine, read-out: Ki (nM) binding data 5-HT2C.

By Ki is commonly meant a measure of affinity in units of concentration, obtained from inhibition or displacement. `O=c1c2sc(-c3ccc(Cl)cc3)cc2ncn1[C@H]1CCc2cc(CN3CCOCC3)ccc2C1` [(S)-6-(4-Chlorophenyl)-3-[6-(morpholinomethyl)-1,2,3,4-tetrahydronapthalene-2-yl]thieno[3,2-d]pyrimidin-4-(3H)-one]: the figures for the Ki in assay [1] and in assay [2] (setting [3]) were 103 nM and > 100000 nM, respectively.

`COc1ccc(-c2cc3ncn([C@H]4CCc5cc(CN6CCN(C(C)=O)CC6)ccc5C4)c(=O)c3s2)cc1` [(S)-3-[6-(4-Acetylpiperazin-1-ymethyl)-1,2,3,4-tetrahydronapthalen-2-yl]-6-(4-methoxyphenyl)thieno[3,2-d]pyrimidin-4(3H)-one]: the Ki was 65.2 nM in assay [1] and > 100000 nM in assay [2] (setting [3]).

Turning to `O=c1c2sc(-c3ccc(Cl)cc3)cc2ncn1[C@H]1CCc2cc(CN3CCCC3)ccc2C1` [(S)-6-(4-Chlorophenyl)-3-(6-pyrrolidin-1-ylmethyl-1,2,3,4-tetrahydronaphthalen-2-yl)thieno[3,2-d]pyrimidin-4(3H)-one], the Ki in assay [1] was 13.7 nM; in assay [2] (setting [3]) it was 3730 nM.

Consider `COc1ncccc1-c1cc2ncn([C@H]3CCc4cc(CN5CCN(S(C)(=O)=O)CC5)ccc4C3)c(=O)c2s1`, for which the Ki in assay [1] is 373 nM; in assay [2] (setting [3]) it was > 100000 nM.

For the molecule `CS(=O)(=O)N1CCN(Cc2ccc3c(c2)CC[C@H](n2cnc4cc(-c5cncc(F)c5)sc4c2=O)C3)CC1`, the values for the Ki in assay [1] and in assay [2] were 13.4 nM and > 100000 nM, respectively.
